According to paper PMC5263201, “GABAA receptor occupancy by subtype selective GABAAα2,3 modulators: PET studies in humans” (Psychopharmacology, 2016):

Columns and labels:
Melatonin MT1 = Melatonin MT1 (Homo sapiens, UniProt P48039); test: Secondary receptor binding profile
P-gp = P-gp (Homo sapiens, UniProt P08183); test: P-gp substrate assessment; assay type: in vitro ADME
GABAA α5β3γ2 = target: GABAA α5β3γ2; parameters: method as in Christian et al 2015; settings: recombinant Sf9 membranes α5β3γ2; [3H]flunitrazepam; mean (SD); ref Christian et al 2015; read-out: Affinity in vitro at BZ binding site (Ki) α5; cited from earlier work
[1] = system: generalized anxiety disorder; parameters: method as in Chen et al. 2014, ClinTrials.gov; settings: ref Chen et al. 2014, ClinTrials.gov; cited from earlier work

Chain of Melatonin MT1 (P48039 whole entry): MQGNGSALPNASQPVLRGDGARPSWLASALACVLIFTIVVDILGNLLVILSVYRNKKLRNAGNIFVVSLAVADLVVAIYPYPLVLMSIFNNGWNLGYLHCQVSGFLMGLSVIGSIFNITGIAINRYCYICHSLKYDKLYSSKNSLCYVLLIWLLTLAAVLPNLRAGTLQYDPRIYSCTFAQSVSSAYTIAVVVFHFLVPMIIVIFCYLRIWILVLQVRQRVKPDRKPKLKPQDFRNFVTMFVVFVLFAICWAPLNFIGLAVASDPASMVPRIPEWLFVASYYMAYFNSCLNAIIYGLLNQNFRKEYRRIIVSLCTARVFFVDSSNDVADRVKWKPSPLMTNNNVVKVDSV
Chain of P-gp (P08183 whole entry): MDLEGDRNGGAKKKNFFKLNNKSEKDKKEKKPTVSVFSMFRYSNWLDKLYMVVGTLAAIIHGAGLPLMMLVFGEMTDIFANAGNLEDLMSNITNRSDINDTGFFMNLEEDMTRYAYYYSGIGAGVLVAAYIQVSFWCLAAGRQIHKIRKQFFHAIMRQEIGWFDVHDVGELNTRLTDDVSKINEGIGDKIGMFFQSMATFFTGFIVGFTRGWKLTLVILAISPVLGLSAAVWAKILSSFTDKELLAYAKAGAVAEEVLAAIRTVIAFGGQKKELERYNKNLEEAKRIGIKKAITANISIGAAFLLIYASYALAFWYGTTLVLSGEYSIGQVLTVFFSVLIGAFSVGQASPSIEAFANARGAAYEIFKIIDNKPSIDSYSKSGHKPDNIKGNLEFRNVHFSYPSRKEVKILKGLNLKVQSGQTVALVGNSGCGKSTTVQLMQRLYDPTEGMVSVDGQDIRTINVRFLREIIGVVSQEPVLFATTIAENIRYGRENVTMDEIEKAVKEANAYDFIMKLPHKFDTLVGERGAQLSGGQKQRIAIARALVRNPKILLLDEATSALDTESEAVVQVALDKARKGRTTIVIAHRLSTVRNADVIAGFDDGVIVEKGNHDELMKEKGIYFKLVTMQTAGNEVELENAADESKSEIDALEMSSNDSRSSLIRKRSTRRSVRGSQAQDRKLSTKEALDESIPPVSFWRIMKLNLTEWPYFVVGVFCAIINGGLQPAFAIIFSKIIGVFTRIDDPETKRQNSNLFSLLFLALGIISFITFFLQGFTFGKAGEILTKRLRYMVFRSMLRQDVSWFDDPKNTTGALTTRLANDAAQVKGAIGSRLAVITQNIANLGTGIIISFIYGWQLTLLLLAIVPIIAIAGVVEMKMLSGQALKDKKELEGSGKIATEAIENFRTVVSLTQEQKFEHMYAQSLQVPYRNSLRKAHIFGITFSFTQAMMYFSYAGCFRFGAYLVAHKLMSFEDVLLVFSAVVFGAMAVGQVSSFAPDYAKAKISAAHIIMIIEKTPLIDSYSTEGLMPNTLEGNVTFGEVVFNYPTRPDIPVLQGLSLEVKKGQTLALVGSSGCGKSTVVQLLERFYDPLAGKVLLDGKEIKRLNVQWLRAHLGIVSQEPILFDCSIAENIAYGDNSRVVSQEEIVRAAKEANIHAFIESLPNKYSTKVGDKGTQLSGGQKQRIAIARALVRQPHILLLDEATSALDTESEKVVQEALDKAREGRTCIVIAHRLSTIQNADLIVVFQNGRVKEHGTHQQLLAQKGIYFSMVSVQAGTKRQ

Structure (SMILES) | IC50 (Melatonin MT1) [nM] | P-gp substrate (P-gp) | Ki (GABAA α5β3γ2) [nM] | anxiolytic effect in patients with generalized anxiety disorder [1]
CCCNC(=O)c1nnc2c(-c3cc(OC)ccc3OC)cccc2c1N [AZD6280] | 116 | Neither compound is a P-gp substrate | 1680 ± 650 | 
CCCNC(=O)c1nnc2c(-c3c(F)cccc3OC)cccc2c1N [AZD7325] |  |  |  | only a weak anxiolytic effect
